Source: PMC13128454, “Mutant p53 protein accumulation is selectively targetable by proximity-inducing drugs” (Nature Chemical Biology, 2025)
Where two headings read alike, the source gives them in different places.

What was measured:
Type in all cases: cell-based
[1] = CellTiter-Glo cell viability; conditions: human, read-out: mean_norm (normalized viability)
Method: (§1) Cells were plated in 384-well plates (typically 1,500 cells per well) with varying concentrations of compounds, with a total volume of 50 μl per well. CTG reagent was added (25 μl) to the solutions, mixed and read out using an EnVision 2105 multimode plate reader.

DU145 cells = experiment: CellTiter-Glo cell viability
Method: as §1

HepG2 cells = experiment: CellTiter-Glo cell viability
Method: as §1

Huh7 cells = experiment: CellTiter-Glo cell viability
Method: as §1

LNCaP cells = experiment: CellTiter-Glo cell viability; conditions: for mean_norm (normalized viability): LNCAP, 4 day
Method: as §1

NUGC-3 cells = experiment: CellTiter-Glo cell viability; conditions: NUGC3
Method: as §1

## CC[C@@H]1C(=O)N(C)c2cnc(Nc3ccc(C(=O)NCCOCCOCCOCCOCCC(=O)N4CCC(Nc5cccc6c5cc(C#CCNc5ccc(S(C)(=O)=O)cc5OC)n6CC(F)(F)F)CC4)cc3OC)nc2N1C1CCCC1 [p53-01, PMV6-PEG4-BI2536]
[1]; DU145 cells, Concentration 156.25, 4 day
  viability at 4 day: 97.4%
[1]; DU145 cells, Concentration 312.5, 4 day
  viability at 4 day: 96.2%
[1]; DU145 cells, Concentration 625, 4 day
  viability at 4 day: 97.2%
[1]; DU145 cells, Concentration 1250, 4 day
  viability at 4 day: 98.7%
[1]; DU145 cells, Concentration 2500, 4 day
  viability at 4 day: 98.2%
[1]; DU145 cells, Concentration 5000, 4 day
  viability at 4 day: 91.3%
[1]; DU145 cells, Concentration 10000, 4 day
  viability at 4 day: 79.5%
[1]; DU145 cells, Concentration 20000, 4 day
  viability at 4 day: 76.4%
[1]; Huh7 cells, Concentration 39.0625, 4 day
  viability at 4 day: 110%
[1]; Huh7 cells, Concentration 78.125, 4 day
  viability at 4 day: 104%
[1]; Huh7 cells, Concentration 156.25, 4 day
  viability at 4 day: 109%
[1]; Huh7 cells, Concentration 312.5, 4 day
  viability at 4 day: 104%
[1]; Huh7 cells, Concentration 625, 4 day
  viability at 4 day: 108%
[1]; Huh7 cells, Concentration 1250, 4 day
  viability at 4 day: 104%
[1]; Huh7 cells, Concentration 2500, 4 day
  viability at 4 day: 107%
[1]; Huh7 cells, Concentration 5000, 4 day
  viability at 4 day: 100%
[1]; Huh7 cells, Concentration 10000, 4 day
  viability at 4 day: 102%
[1]; Huh7 cells, Concentration 20000, 4 day
  viability at 4 day: 83.1%
[1]; LNCaP cells, LNCAP, Concentration 39.0625, 4 day
  viability at 4 day: 96.3%
[1]; LNCaP cells, LNCAP, Concentration 78.125, 4 day
  viability at 4 day: 93%
[1]; LNCaP cells, LNCAP, Concentration 156.25, 4 day
  viability at 4 day: 94.9%
[1]; LNCaP cells, LNCAP, Concentration 312.5, 4 day
  viability at 4 day: 97.9%
[1]; LNCaP cells, LNCAP, Concentration 625, 4 day
  viability at 4 day: 108%
[1]; LNCaP cells, LNCAP, Concentration 1250, 4 day
  viability at 4 day: 102%
[1]; LNCaP cells, LNCAP, Concentration 2500, 4 day
  viability at 4 day: 87.3%
[1]; MCF7 cells, Concentration 1250, 4 day
  viability at 4 day: 88.6%
[1]; MCF7 cells, Concentration 2500, 4 day
  viability at 4 day: 64.8%
[1]; MCF7 cells, Concentration 5000, 4 day
  viability at 4 day: 49.8%
[1]; MCF7 cells, Concentration 10000, 4 day
  viability at 4 day: 36.9%
[1]; MCF7 cells, Concentration 20000, 4 day
  viability at 4 day: 29.2%
[1]; NUGC-3 cells, NUGC3, Concentration 39.0625, 4 day
  viability at 4 day: 101%
[1]; NUGC-3 cells, NUGC3, Concentration 78.125, 4 day
  viability at 4 day: 98%
[1]; NUGC-3 cells, NUGC3, Concentration 156.25, 4 day
  viability at 4 day: 103%
[1]; NUGC-3 cells, NUGC3, Concentration 312.5, 4 day
  viability at 4 day: 98.2%
[1]; NUGC-3 cells, NUGC3, Concentration 625, 4 day
  viability at 4 day: 91.1%
[1]; NUGC-3 cells, NUGC3, Concentration 1250, 4 day
  viability at 4 day: 79.9%
[1]; NUGC-3 cells, NUGC3, Concentration 2500, 4 day
  viability at 4 day: 53.4%
[1]; NUGC-3 cells, NUGC3, Concentration 5000, 4 day
  viability at 4 day: 42.5%
[1]; NUGC-3 cells, NUGC3, Concentration 10000, 4 day
  viability at 4 day: 39.3%
[1]; NUGC-3 cells, NUGC3, Concentration 20000, 4 day
  viability at 4 day: 32.6%
DU145 cells
  p5301_AUC_to_10uM: 0.9088
DU145 cells; Homo sapiens, DU-145, 96 h, 4 day treatment
  IC50: > 20 µM
HepG2 cells
  p5301_AUC_to_10uM: 0.9503
HepG2 cells; Concentration 39.0625, 4 day
  mean_norm (normalized viability): 0.9684
HepG2 cells; Concentration 78.125, 4 day
  mean_norm (normalized viability): 0.9673
HepG2 cells; Concentration 156.25, 4 day
  mean_norm (normalized viability): 0.8732
HepG2 cells; Concentration 312.5, 4 day
  mean_norm (normalized viability): 0.9657
HepG2 cells; Concentration 625, 4 day
  mean_norm (normalized viability): 0.8895
HepG2 cells; Concentration 1250, 4 day
  mean_norm (normalized viability): 0.9491
HepG2 cells; Concentration 2500, 4 day
  mean_norm (normalized viability): 0.8943
HepG2 cells; Concentration 5000, 4 day
  mean_norm (normalized viability): 1.008
HepG2 cells; Concentration 10000, 4 day
  mean_norm (normalized viability): 0.9189
HepG2 cells; Concentration 20000, 4 day
  mean_norm (normalized viability): 0.9567
HepG2 cells; Homo sapiens, 96 h, 4 day treatment
  IC50: > 20 µM
Huh7 cells
  p5301_AUC_to_10uM: 1
Huh7 cells; Homo sapiens, Huh-7, 96 h, 4 day treatment
  IC50: > 20 µM
LNCaP cells; Homo sapiens, 96 h, LNCaP, 4 day treatment
  IC50: 14.1 µM
LNCaP cells; Concentration 5000
  mean_norm (normalized viability): 0.7565
LNCaP cells; Concentration 10000
  mean_norm (normalized viability): 0.7384
LNCaP cells; Concentration 20000
  mean_norm (normalized viability): 0.4932
LNCaP cells; LNCaP
  p5301_AUC_to_10uM: 0.8069
NUGC-3 cells; Homo sapiens, NUGC-3, 96 h, 4 day treatment
  IC50: 1.71 µM
NUGC-3 cells
  p5301_AUC_to_10uM: 0.5108
